The results in this text go back to patent US9981964B2 (Agency for Science, Technology and Research, priority 2013, dated 2018).

Each structure is given as a SMILES string.

The subject of the assay is HEK293-STF3A cells. Kind of assay: STF3A assay (STF luciferase reporter in Wnt3A-expressing HEK293 cells). Type of assay: cell-based. The note with it: Homo sapiens, 24 h, 1 day of treatment. In a few lines:
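HEK293 cells carrying the STF reporter and expressing Wnt3A, seeded 2×10^4 per well overnight, then treated 1 day with compound at final 50 μM to 1.5 nM. Luciferase activity read by luminescence after Steady-Glo reagent, 10 min at room temperature.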

As for `CC(C(=O)Nc1cc(F)c(-c2cccnc2)cn1)N1CCCC2=C1C(=O)N(C)C2=O` (centres unmarked) [Compound 119, N-(4-fluoro-3,3′-bipyridin-6-yl)-2-(6-methyl-5,7-dioxo-2,3,4,5,6,7-hexahydro-1H-pyrrolo[3,4-b]pyridin-1-yl)propanamide], the IC50 (as a rule, the midpoint of a concentration-inhibition curve) was under 100 nM.
Compound `Cc1cc(NC(=O)CN2CCCC3=C2C(=O)N(C2CC2)C3=O)ncc1-c1cccnc1` [Compound 120, 2-(6-cyclopropyl-5,7-dioxo-2,3,4,5,6,7-hexahydro-1H-pyrrolo[3,4-b]pyridin-1-yl)-N-(4-methyl-[3,3′-bipyridin]-6-yl)acetamide] came in with an IC50 of under 1000 nM.
With `Cc1ncccc1-c1ccc(NC(=O)CN2CCCC3=C2C(=O)N(C2CC2)C3=O)cn1` [Compound 121, 2-(6-cyclopropyl-5,7-dioxo-2,3,4,5,6,7-hexahydro-1H-pyrrolo[3,4-b]pyridin-1-yl)-N-(2′-methyl-2,3′-bipyridin-5-yl)acetamide], the IC50 was under 100 nM.
The figure for `CN1C(=O)C2=C(C1=O)N(CC(=O)Nc1ccc(-c3ccncc3)nc1)CCC2` [Compound 122, N-(2,4′-bipyridin-5-yl)-2-(6-methyl-5,7-dioxo-2,3,4,5,6,7-hexahydro-1H-pyrrolo[3,4-b]pyridin-1-yl)acetamide] is under 1000 nM.
`Cc1nc(-c2cccnc2)ccc1NC(=O)CN1CCCC2=C1C(=O)N(C1CC1)C2=O` [Compound 123, 2-(6-cyclopropyl-5,7-dioxo-2,3,4,5,6,7-hexahydro-1H-pyrrolo[3,4-b]pyridin-1-yl)-N-(6-methyl-2,3′-bipyridin-5-yl)acetamide]: the IC50 was over 10000 nM.
In the case of `O=C(CN1CCCC2=C1C(=O)N(C1CC1)C2=O)Nc1ccc(-c2ccc(F)nc2)nc1` [Compound 124, 2-(6-cyclopropyl-5,7-dioxo-2,3,4,5,6,7-hexahydro-1H-pyrrolo[3,4-b]pyridin-1-yl)-N-(6′-fluoro-[2,3′-bipyridin]-5-yl)acetamide], the IC50 was under 100 nM.
As to `Cc1nc(NC(=O)CN2CCCC3=C2C(=O)N(C2CC2)C3=O)ccc1-c1cccnc1` [Compound 125, 2-(6-cyclopropyl-5,7-dioxo-2,3,4,5,6,7-hexahydro-1H-pyrrolo[3,4-b]pyridin-1-yl)-N-(2-methyl-[3,3′-bipyridin]-6-yl)acetamide], the IC50 is under 1000 nM.
In turn, `O=C(CN1CCCC2=C1C(=O)N(C1CC1)C2=O)Nc1ccc(-c2ccc(F)cn2)cn1` [Compound 127, 2-(6-cyclopropyl-5,7-dioxo-2,3,4,5,6,7-hexahydro-1H-pyrrolo[3,4-b]pyridin-1-yl)-N-(5-fluoro-[2,3′-bipyridin]-6′-yl)acetamide] displayed an IC50 of under 100 nM.
For `Cc1cncc(-c2ccc(NC(=O)CN3CCCC4=C3C(=O)N(C3CC3)C4=O)nc2)n1` [Compound 128, 2-(6-cyclopropyl-5,7-dioxo-2,3,4,5,6,7-hexahydro-1H-pyrrolo[3,4-b]pyridin-1-yl)-N-(5-(6-methylpyrazin-2-yl)pyridin-2-yl)acetamide], the IC50 is under 100 nM.
In turn, `Cc1cncc(-c2ccc(NC(=O)CN3CCCC4=C3C(=O)N(C)C4=O)nc2)n1` [Compound 129, 2-(6-methyl-5,7-dioxo-2,3,4,5,6,7-hexahydro-1H-pyrrolo[3,4-b]pyridin-1-yl)-N-(5-(6-methylpyrazin-2-yl)pyridin-2-yl)acetamide] had an IC50 of under 100 nM.
`COc1ccc(-c2ccc(NC(=O)CN3CCCC4=C3C(=O)N(C3CC3)C4=O)nc2)nc1` [Compound 130, 2-(6-cyclopropyl-5,7-dioxo-2,3,4,5,6,7-hexahydro-1H-pyrrolo[3,4-b]pyridin-1-yl)-N-(5-methoxy-[2,3′-bipyridin]-6′-yl)acetamide] yielded an IC50 of under 100 nM.
The figure for `Cc1cccc(-c2ccc(NC(=O)CN3CCCC4=C3C(=O)N(C)C4=O)cn2)c1` [Compound 131, 2-(6-methyl-5,7-dioxo-2,3,4,5,6,7-hexahydro-1H-pyrrolo[3,4-b]pyridin-1-yl)-N-(6-(m-tolyl)pyridin-3-yl)acetamide] is under 100 nM; for `Cc1cnc(-c2ccc(NC(=O)CN3CCCC4=C3C(=O)N(C)C4=O)nc2)cn1` [Compound 132, 2-(6-methyl-5,7-dioxo-2,3,4,5,6,7-hexahydro-1H-pyrrolo[3,4-b]pyridin-1-yl)-N-(5-(5-methylpyrazin-2-yl)pyridin-2-yl)acetamide] it is under 100 nM.
As to `Cc1cc(NC(=O)CN2CCCC3=C2C(=O)N(C2CC2)C3=O)cnc1-c1cccnc1` [Compound 133, 2-(6-cyclopropyl-5,7-dioxo-2,3,4,5,6,7-hexahydro-1H-pyrrolo[3,4-b]pyridin-1-yl)-N-(3-methyl-2,3′-bipyridin-5-yl)acetamide], the IC50 is under 1000 nM.
The compound `Cc1ncccc1-c1ccc(NC(=O)CN2CCCC3=C2C(=O)N(C)C3=O)nn1` [Compound 134, 2-(6-methyl-5,7-dioxo-2,3,4,5,6,7-hexahydro-1H-pyrrolo[3,4-b]pyridin-1-yl)-N-(6-(2-methylpyridin-3-yl)pyridazin-3-yl)acetamide] returned a half-inhibitory concentration (IC50) of under 5000 nM.
The figure for `O=C(CN1CCCC2=C1C(=O)N(C1CC1)C2=O)Nc1ccc(-c2cccnc2F)nc1` [Compound 135, 2-(6-cyclopropyl-5,7-dioxo-2,3,4,5,6,7-hexahydro-1H-pyrrolo[3,4-b]pyridin-1-yl)-N-(2′-fluoro-2,3′-bipyridin-5-yl)acetamide] is under 100 nM.
`O=C(CN1CCCC2=C1C(=O)N(C1CC1)C2=O)Nc1ccc(-c2cccnc2)nc1F` [Compound 137] came in with an IC50 of under 100 nM.
The compound `Cc1ccncc1-c1ccc(NC(=O)CN2CCCC3=C2C(=O)N(C2CC2)C3=O)cn1` [Compound 138, 2-(6-cyclopropyl-5,7-dioxo-2,3,4,5,6,7-hexahydro-1H-pyrrolo[3,4-b]pyridin-1-yl)-N-(4′-methyl-2,3′-bipyridin-5-yl)acetamide] returned a 50% inhibitory concentration (IC50) of under 1000 nM.
The figure for `CC(C(=O)Nc1ccc(-c2cncc(F)c2)cn1)N1CCCC2=C1C(=O)N(C)C2=O` (centres unmarked) [Compound 139, N-(5′-fluoro-3,3′-bipyridin-6-yl)-2-(6-methyl-5,7-dioxo-2,3,4,5,6,7-hexahydro-1H-pyrrolo[3,4-b]pyridin-1-yl)propanamide] is under 100 nM.
Consider `Cc1cc(-c2cccnc2)ncc1NC(=O)CN1CCCC2=C1C(=O)N(C1CC1)C2=O` [Compound 140, 2-(6-cyclopropyl-5,7-dioxo-2,3,4,5,6,7-hexahydro-1H-pyrrolo[3,4-b]pyridin-1-yl)-N-(4-methyl-2,3′-bipyridin-5-yl)acetamide], for which the IC50 was under 10000 nM.
As for `CN1C(=O)C2=C(C1=O)N(CC(=O)Nc1cnc(-c3cncc(F)c3)cn1)CCC2` [Compound 141, N-(5-(5-fluoropyridin-3-yl)pyrazin-2-yl)-2-(6-methyl-5,7-dioxo-2,3,4,5,6,7-hexahydro-1H-pyrrolo[3,4-b]pyridin-1-yl)acetamide], the IC50 was under 100 nM.
As to `O=C(CN1CCCC2=C1C(=O)N(C1CC1)C2=O)Nc1cnc(-c2cncc(F)c2)cn1` [Compound 142, 2-(6-cyclopropyl-5,7-dioxo-2,3,4,5,6,7-hexahydro-1H-pyrrolo[3,4-b]pyridin-1-yl)-N-(5-(5-fluoropyridin-3-yl)pyrazin-2-yl)acetamide], the IC50 is under 100 nM.
For `CN1C(=O)C2=C(C1=O)N(CC(=O)Nc1ccc(-c3cncc(F)c3)cn1)CCC2` [Compound 143, N-(5′-fluoro-3,3′-bipyridin-6-yl)-2-(6-methyl-5,7-dioxo-2,3,4,5,6,7-hexahydro-1H-pyrrolo[3,4-b]pyridin-1-yl)acetamide], the IC50 was under 100 nM.
